The nature of data set [1]: Hygroscopic property test (25° C., humidity 95%). Type of data set: physicochemical. The conditions noted are these: for absorbed water: after 24 hours, 95% high humidity condition; for Increase percentage (absorbed water amount) / Weight: 25° C., humidity 95%; for water absorption: high humidity condition. Here is the method:
The crystals of free (2R,4R)-monatin (sample 1) prepared in Comparative Example 1, crystal of the potassium salt of (2R,4R)-monatin monohydrate (sample 2), and an amorphous solid of the potassium salt of (2R,4R)-monatin (sample 3) separately prepared were weighed out in an amount of 0.5 g, respectively, each was placed in a petri dish, and stored (retained) under a high humidity condition of 95% and a temperature of 25° C. After retention times of 1, 3, 6 and 24 hours, the weight of each sample was measured. The measuring conditions were as follows.
Apparatus name: HIFLEX TH401 supplied from ETAC.
Storing condition: 25° C., humidity of 95%.
Sample container: diameter of 25 cm, glass petri dish.

The conditions of data set [2]: sodium salt of stereoisomer, 5% sucrose solution as control, optical purity 99% or more, cited from earlier work.
The conditions of data set [3]: cited from earlier work; for intensity of sweet taste: Nakamura et al., hydrochloride salts.
The nature of data set [4]: Sweetness intensity of crystals of free (2R,4R)-monatin compared with an aqueous solution of 5% sucrose. As to the method:
It was identified that the sweetness intensity (degree of sweetness) of the present crystals of free (2R,4R)-monatin is about 2500 times that of an aqueous solution of 5% sucrose. This sweetness intensity is nearly equivalent to the sweetness intensity (about 2700 times) of the crystals of the sodium salt of (2R,4R)-monatin evaluated by the inventors in Amino, Y. et al., WO 2003045914 A1.
1.05 mg of crystals of free (2R,4R)-monatin described in the above Comparative Example 1 were dissolved in 20 ml of ion-exchanged water. A solution was prepared by diluting this solution 2.5 times. The sweetness of this aqueous solution of the free compound of (2R,4R)-monatin was compared with that of an aqueous solution of 5% sucrose separately prepared.

The source of these data is patent US7935377B2, “Crystals of free (2R, 4R)-monatin and use thereof” (Ajinomoto Co., Inc., priority 2004, dated 2011).

Where two headings read alike, the source gives them in different places.

The compound “potassium salt of (2R,4R)-monatin monohydrate [Sample 2]” returned an absorbed water in data set [1] of 5.4 wt. %. The “Increase percentage (absorbed water amount)” value (“Increase percentage” below) is reported as 0.00% in data set [1] (retention time 0 hrs); 1.08% in data set [1] (retention time 1 hr); 3.71% in data set [1] (retention time 3 hrs); 4.89% in data set [1] (retention time 6 hrs); 5.39% in data set [1] (retention time 24 hrs). Also, the Weight is on record as 0.5007 g in data set [1] (retention time 0 hrs); 0.5061 g in data set [1] (retention time 1 hr); 0.5193 g in data set [1] (retention time 3 hrs); 0.5252 g in data set [1] (retention time 6 hrs); 0.5277 g in data set [1] (retention time 24 hrs).
Turning to `NC(CC(O)(Cc1c[nH]c2ccccc12)C(=O)O)C(=O)O` [(2S,4S)-monatin substance, (2S,4S)-monatin], in data set [2], the degree of sweetness was 50 times.
Turning to `N[C@@H](C[C@](O)(Cc1c[nH]c2ccccc12)C(=O)O)C(=O)O` [synthetic (2S,4R)-monatin, (2S,4R)-monatin], the “intensity of sweet taste” value is listed as “slightly sweet taste” in data set [3] and “almost no sweetness” in data set [3] (listed as hydrochloride salt of (2S,4R)-monatin).
In data set [1], “potassium salt of (2R,4R)-monatin [Sample 3]” returned an absorbed water of 7.3 wt. %. For the same compound, the “Increase percentage” value in data set [1] (retention time 0 hrs) is 0.00%; in data set [1] (retention time 1 hr), 8.82%; in data set [1] (retention time 3 hrs) it was 8.58%; in data set [1] (retention time 6 hrs), 7.30%; in data set [1] (retention time 24 hrs), 7.30%. The Weight in data set [1] (retention time 0 hrs) came to 0.5014 g; in data set [1] (retention time 1 hr), 0.5456 g; in data set [1] (retention time 3 hrs), 0.5444 g; in data set [1] (retention time 6 hrs), 0.5383 g; in data set [1] (retention time 24 hrs) it was 0.5380 g.
For `N[C@@H](C[C@](O)(Cc1c[nH]c2ccccc12)C(=O)O)C(=O)O` [(2S,4R)-monatin substance, (2S,4R)-monatin], the degree of sweetness in data set [2] was 300 times.
With `N[C@H](CC(O)(Cc1c[nH]c2ccccc12)C(=O)O)C(=O)O` (stereo partly drawn) [Sample 1, (2R,4R)-monatin], in data set [4] (1.05 mg in 20 ml ion-exchanged water, diluted 2.5 times), the “sweetness compared with aqueous solution of 5% sucrose” value is “nearly equivalent sweetness intensity”. For the same compound, the “sweetness intensity (degree of sweetness)” value in data set [4] (relative to an aqueous solution of 5% sucrose) is “about 2500 times”. Besides, the water absorption entry was “scarcely absorbs water” in data set [1] (listed as crystal of free (2R,4R)-monatin) and “no water absorption” in data set [1] (listed as crystals of free (2R,4R)-monatin). In addition, the “Increase percentage” value in data set [1] (retention time 0 hrs), in data set [1] (retention time 1 hr), in data set [1] (retention time 3 hrs), in data set [1] (retention time 6 hrs) and in data set [1] (retention time 24 hrs) was 0.00% each time. In addition, the Weight in data set [1] (retention time 0 hrs) was 0.5000 g; in data set [1] (retention time 1 hr) it was 0.5000 g; in data set [1] (retention time 3 hrs) it was 0.4996 g; in data set [1] (retention time 6 hrs), 0.5001 g; in data set [1] (retention time 24 hrs) it was 0.4997 g.
On to `N[C@@H](C[C@@](O)(Cc1c[nH]c2ccccc12)C(=O)O)C(=O)O` [(2S,4S)-monatin, (2S,4S)-2-amino-4-carboxy-4-hydroxy-5-(3-indolyl)-pentanoic acid], for which the sweetness intensity in data set [3] (times that of sucrose, Vleggaar et al.) was 800 to 1400 times.
On to `N[C@H](C[C@](O)(Cc1c[nH]c2ccccc12)C(=O)O)C(=O)O` [(2R,4R)-monatin substance, (2R,4R)-monatin], for which the results for the degree of sweetness in data set [2], in data set [2] (listed as (2R,4R)) and in data set [2] (listed as crystals of the sodium salt of (2R,4R)-monatin) were 2700 times, 2700 times and “about 2700 times”, respectively.
For the compound `NC(CC(O)(Cc1c[nH]c2ccccc12)C(=O)O)C(=O)O` [synthetic (2S,4S)-monatin, (2S,4S)-monatin], the “intensity of sweet taste” value in data set [3] is reported as “equivalent to that of the natural specimen of monatin”.
In the case of `N[C@H](C[C@@](O)(Cc1c[nH]c2ccccc12)C(=O)O)C(=O)O` [(2R,4S)-monatin substance, (2R,4S)-monatin], the degree of sweetness in data set [2] is 1300 times.
